Structures can show the parent of a compound that is named as a salt.
Assays:
TbrPDEB1 = target: T1, TbrPDEB1 (Trypanosoma brucei, UniProt Q8WQX9); assay: TbrPDEB1 biochemical assay; details: for inhibition at 10 µM: read-out: TbrPDEB1 (% inh); for fold improvement of TbrPDEB1 activity over 3: relative to compound 3
T1 sequence (Q8WQX9 1-930): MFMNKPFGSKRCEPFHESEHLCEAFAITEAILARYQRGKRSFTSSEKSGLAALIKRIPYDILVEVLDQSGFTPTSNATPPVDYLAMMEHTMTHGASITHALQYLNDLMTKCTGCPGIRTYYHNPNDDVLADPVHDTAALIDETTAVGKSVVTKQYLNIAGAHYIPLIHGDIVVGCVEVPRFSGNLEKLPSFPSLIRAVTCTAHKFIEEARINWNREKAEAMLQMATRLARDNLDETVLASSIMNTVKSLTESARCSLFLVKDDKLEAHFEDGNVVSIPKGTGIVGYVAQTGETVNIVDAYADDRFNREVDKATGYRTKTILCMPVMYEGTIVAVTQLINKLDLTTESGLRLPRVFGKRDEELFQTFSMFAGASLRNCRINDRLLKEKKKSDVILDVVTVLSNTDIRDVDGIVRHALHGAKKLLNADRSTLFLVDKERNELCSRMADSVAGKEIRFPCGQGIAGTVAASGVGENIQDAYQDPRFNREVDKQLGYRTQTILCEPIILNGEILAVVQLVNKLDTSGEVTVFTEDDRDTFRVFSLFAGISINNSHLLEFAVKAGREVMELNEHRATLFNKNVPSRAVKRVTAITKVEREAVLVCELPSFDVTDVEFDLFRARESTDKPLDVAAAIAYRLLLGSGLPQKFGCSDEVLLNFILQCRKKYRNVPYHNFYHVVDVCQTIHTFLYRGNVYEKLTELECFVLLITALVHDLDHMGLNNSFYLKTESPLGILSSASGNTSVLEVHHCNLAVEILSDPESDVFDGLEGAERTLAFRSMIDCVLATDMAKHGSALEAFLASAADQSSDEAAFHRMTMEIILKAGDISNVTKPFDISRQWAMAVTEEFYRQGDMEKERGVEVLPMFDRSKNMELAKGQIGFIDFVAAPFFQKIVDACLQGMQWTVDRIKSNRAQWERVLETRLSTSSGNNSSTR

[1] = system: Bloodstream forms of Trypanosoma brucei brucei strain 427; assay: Trypanosome cell culture assay; assay type: cell-based; details: 48 h, read-out: T brucei cell (EC50, μM)

| SMILES | inhibition at 10 µM (TbrPDEB1) | fold improvement of TbrPDEB1 activity over 3 (TbrPDEB1) | EC50 [1] |
| --- | --- | --- | --- |
| COC(=O)c1cccc(S(=O)(=O)c2cc(C)c3ncc(C(N)=O)c(Nc4cccc(OC)c4)c3c2)c1 [Compound 10a, methyl 3-(3-carbamoyl-4-(3-methoxyphenylamino)-8-methylquinolin-6-ylsulfonyl)benzoate] | 70 ± 7.9% | approximately 8 fold | 7.3 ± 0.97 µM |
| COc1cccc(Nc2c(C(N)=O)cnc3c(C)cc(S(=O)(=O)c4cccc(C(N)=O)c4)cc23)c1 [Compound 12a, 6-(3-carbamoylphenylsulfonyl)-4-(3-methoxyphenylamino)-8-methylquinoline-3-carboxamide] | 64 ± 7% | – | – |
| COc1cccc(Nc2c(C(N)=O)cnc3c(C)cc(-c4cc(C(=O)O)cc(C(=O)O)c4)cc23)c1 [Compound 18a, 5-(3-carbamoyl-4-((3-methoxyphenyl)amino)-8-methylquinolin-6-yl)isophthalic acid] | 10 ± 5.3% | – | – |
| COc1cccc(Nc2c(C(N)=O)cnc3c(C)cc(Sc4ccccc4)cc23)c1 [Compound 9b, 4-((3-methoxyphenyl)amino)-8-methyl-6-(phenylthio)quinoline-3-carboxamide] | 10% | – | – |
| Cc1cc(-c2cccc(-c3ncco3)c2)cc2c(NC3CCCC3)c(C(N)=O)cnc12 [Compound 28, 4-(cyclopentylamino)-8-methyl-6-(3-(oxazol-2-yl)phenyl)quinoline-3-carboxamide] | 76 ± 2.2% | – | – |
| COC(=O)c1cccc(Nc2cc(C)c3ncc(C(N)=O)c(Nc4cccc(OC)c4)c3c2)c1 [Compound 13, methyl 3-(3-carbamoyl-4-(3-methoxyphenylamino)-8-methylquinolin-6-ylamino)benzoate] | 84 ± 7.7% | – | – |
| COc1cccc(Nc2c(C(N)=O)cnc3c(C)cc(S(=O)(=O)c4ccccc4)cc23)c1 [Compound 10b, 4-((3-methoxyphenyl)amino)-8-methyl-6-(phenylsulfonyl)quinoline-3-carboxamide] | 21 ± 16% | – | – |
| COc1cccc(Nc2c(C(N)=O)cnc3c(C)cc(S(=O)(=O)c4cccc(C(=O)O)c4)cc23)c1 [Compound 11, 3-(3-carbamoyl-4-(3-methoxyphenylamino)-8-methylquinolin-6-ylsulfonyl)benzoic acid] | 82 ± 10% | approximately 8 fold | – |
| COC(=O)c1cccc(Sc2cc(C)c3ncc(C(N)=O)c(Nc4cccc(OC)c4)c3c2)c1 [Compound 9a, methyl 3-(3-carbamoyl-4-(3-methoxyphenylamino)-8-methylquinolin-6-ylthio)benzoate] | 12 ± 6.1% | – | – |
| COc1cccc(Nc2c(C(N)=O)cnc3c(C)cc(S(=O)(=O)c4cccc(C(=O)N(C)C)c4)cc23)c1 [Compound 3, GSK-256066, reference compound] | 51 ± 3.9% | – | 7.8 ± 2.5 µM |
| CNC(=O)c1cccc(S(=O)(=O)c2cc(C)c3ncc(C(N)=O)c(Nc4cccc(OC)c4)c3c2)c1 [Compound 12b, 4-(3-methoxyphenylamino)-8-methyl-6-(3-(methylcarbamoyl)phenylsulfonyl)quinoline-3-carboxamide] | 66 ± 6.1% | – | – |
| COC(=O)c1cc(C(=O)O)cc(-c2cc(C)c3ncc(C(N)=O)c(Nc4cccc(OC)c4)c3c2)c1 [Compound 18b, 3-(3-carbamoyl-4-((3-methoxyphenyl)amino)-8-methylquinolin-6-yl)-5-(methoxycarbonyl)benzoic acid] | 31 ± 14% | – | – |

More lines, main results first:

| inhibition at 10 µM (TbrPDEB1) | fold improvement of TbrPDEB1 activity over 3 (TbrPDEB1) | SMILES | EC50 [1] |
| --- | --- | --- | --- |
| 22 ± 3.8% | – | COc1cccc(Nc2c(C(=O)N(C)C)cnc3c(C)cc(-c4ccc5cnn(C)c5c4)cc23)c1 [Compound 27b, 4-((3-methoxyphenyl)amino)-N,N,8-trimethyl-6-(1-methyl-1H-indazol-6-yl)quinoline-3-carboxamide, formic acid salt] | – |
| 0% | – | COC(=O)c1cccc(-c2cc(C)c3ncc(C(N)=O)cc3c2)c1 [Compound 21b, methyl 3-(3-carbamoyl-8-methylquinolin-6-yl)benzoate] | – |
| 41 ± 5.8% | – | COC(=O)c1cccc(-c2cc(C)c3ncc(C(N)=O)c(-c4cccc(C(=O)OC)c4)c3c2)c1 [Compound 21a, dimethyl 3,3′-(3-carbamoyl-8-methylquinoline-4,6-diyl)dibenzoate] | – |
| 34 ± 11% | – | CNC(=O)c1cnc2c(C)cc(-c3ccc4cnn(C)c4c3)cc2c1Nc1cccc(OC)c1 [Compound 27a, 4-((3-methoxyphenyl)amino)-N,8-dimethyl-6-(1-methyl-1H-indazol-6-yl)quinoline-3-carboxamide] | – |

Source: paper PMC4385514 (Chemical biology & drug design, 2014)
